# Tests used:
# [1] = tested on: Serum testosterone; assay: Serum testosterone in male rats after 7 days of treatment (direct RIA); type: in vivo; conditions: 7 consecutive days; for Effect on serum testosterone levels compared to the control group: 0.2-20 mg/kg; for Average Decrease in Serum Testosterone Level (%): pre- vs post-treatment
# Description: (§1) Male rats were given increasing doses (control=0 mg/kg, low=0.2 mg/kg, medium=2 mg/kg and high=20 mg/kg) of clomiphene, trans-clomiphene or cis-clomiphene for 7 consecutive days. Treatment was followed by a 7-day washout period. Serum testosterone levels and body weight were tested pre-treatment and post-treatment. Serum testosterone levels were analyzed by direct radioimmunoassay (RIA).
# (§2) There were significant and unexpected decreases in serum testosterone and body weight among all treatment groups. […] There was a significant loss in both body weight and total serum testosterone with clomiphene that was dose-dependent.
# [2] = Body weight in male rats after 7 days of treatment; type: in vivo; conditions: 7 consecutive days; for Effect on body weight compared to the control group: 0.2-20 mg/kg; for Average Loss of Body Weight: pre- vs post-treatment
# Description: as §1, §2
# [3] = cited from earlier work
# [4] = Ernst et al.; cited from earlier work
# [5] = tested on: FSH, LH, testosterone; conditions: cited from earlier work
# [6] = Long-term low-dose study: mean body weight in male and female rats; type: in vivo
# Description: (§3) Twenty-eight weeks of a two-year study of the effects of low dosages of trans-clomiphene (0 mg/kg/day (control), 0.0125 mg/kg/day, 0.025 mg/kg/day and 0.05 mg/kg/day) on mean body weight and mean food consumption in age-matched male and female rats has been completed. For each group, n=60. Losses in body weight and decreases in food consumption in both male and female treatment groups (compared to control groups) have been observed in every treatment group. As the study has progressed, the losses in body weight and decreases in food consumption have become more pronounced. See Table 2 (M=male; F=female; Mean Body weight is in grams; Mean Food consumption is in grams/animal/day; and dosages are of trans-clomiphene in mg/kg/day).
# [7] = Long-term low-dose study: mean food consumption in male and female rats; type: in vivo
# Description: as §3
# [8] = female rats, 0.0125 mg/kg/day, Week 2
# [9] = female rats, 0.0125 mg/kg/day, Week 6
# [10] = female rats, 0.0125 mg/kg/day, Week 10
# [11] = female rats, 0.0125 mg/kg/day, Week 14
# [12] = female rats, 0.0125 mg/kg/day, Week 18
# [13] = female rats, 0.0125 mg/kg/day, Week 22
# [14] = female rats, 0.0125 mg/kg/day, Week 26
# [15] = female rats, 0.0125 mg/kg/day, Week 28
# [16] = female rats, 0.025 mg/kg/day, Week 2
# [17] = female rats, 0.025 mg/kg/day, Week 6
# [18] = female rats, 0.025 mg/kg/day, Week 10
# [19] = female rats, 0.025 mg/kg/day, Week 14
# [20] = female rats, 0.025 mg/kg/day, Week 18
# [21] = female rats, 0.025 mg/kg/day, Week 22
# [22] = female rats, 0.025 mg/kg/day, Week 26
# [23] = female rats, 0.025 mg/kg/day, Week 28
# [24] = female rats, 0.05 mg/kg/day, Week 2
# [25] = female rats, 0.05 mg/kg/day, Week 6
# [26] = female rats, 0.05 mg/kg/day, Week 10
# [27] = female rats, 0.05 mg/kg/day, Week 14
# [28] = female rats, 0.05 mg/kg/day, Week 18
# [29] = female rats, 0.05 mg/kg/day, Week 22
# [30] = female rats, 0.05 mg/kg/day, Week 26
# [31] = female rats, 0.05 mg/kg/day, Week 28
# [32] = male rats, 0.0125 mg/kg/day, Week 2
# [33] = male rats, 0.0125 mg/kg/day, Week 6
# [34] = male rats, 0.0125 mg/kg/day, Week 10
# [35] = male rats, 0.0125 mg/kg/day, Week 14
# [36] = male rats, 0.0125 mg/kg/day, Week 18
# [37] = male rats, 0.0125 mg/kg/day, Week 22
# [38] = male rats, 0.0125 mg/kg/day, Week 26
# [39] = male rats, 0.0125 mg/kg/day, Week 28
# [40] = male rats, 0.025 mg/kg/day, Week 2
# [41] = male rats, 0.025 mg/kg/day, Week 6
# [42] = male rats, 0.025 mg/kg/day, Week 10
# [43] = male rats, 0.025 mg/kg/day, Week 14
# [44] = male rats, 0.025 mg/kg/day, Week 18
# [45] = male rats, 0.025 mg/kg/day, Week 22
# [46] = male rats, 0.025 mg/kg/day, Week 26
# [47] = male rats, 0.025 mg/kg/day, Week 28
# [48] = male rats, 0.05 mg/kg/day, Week 2
# [49] = male rats, 0.05 mg/kg/day, Week 6
# [50] = male rats, 0.05 mg/kg/day, Week 10
# [51] = male rats, 0.05 mg/kg/day, Week 14
# [52] = male rats, 0.05 mg/kg/day, Week 18
# [53] = male rats, 0.05 mg/kg/day, Week 22
# [54] = male rats, 0.05 mg/kg/day, Week 26
# [55] = male rats, 0.05 mg/kg/day, Week 28
structure (smiles),measurement,setting,value
"CCN(CC)CCOc1ccc(/C(=C(/Cl)c2ccccc2)c2ccccc2)cc1 [Cis-clomiphene, cis-clomiphene]",Effect on serum testosterone levels compared to the control group,[1],significantly and statistically lowered serum testosterone levels
same,Average Decrease in Serum Testosterone Level (%),[1]; low=0.2 mg/kg,68.1%
same,Average Decrease in Serum Testosterone Level (%),[1]; medium=2 mg/kg,99.3%
same,Effect on body weight compared to the control group,[2],caused a loss in body weight
same,Average Loss of Body Weight,[2]; high=20 mg/kg,75 g
same,Average Loss of Body Weight,[2]; low=0.2 mg/kg,32 g
same,Average Loss of Body Weight,[2]; medium=2 mg/kg,54 g
same,time for which significant blood level is detectable,[3]; following a single dose of clomiphene citrate,in excess of one month
same,in vivo clearance,[3],clears slowly
same,estrogenic / antiestrogenic activity,[4],more potent and more estrogenic form
"CCN(CC)CCOc1ccc(C(=C(Cl)c2ccccc2)c2ccccc2)cc1 [Clomiphene, clomiphene]",Effect on serum testosterone levels compared to the control group,[1],significantly and statistically lowered serum testosterone levels
same,Average Decrease in Serum Testosterone Level (%),[1]; high=20 mg/kg,89.7%
same,Average Decrease in Serum Testosterone Level (%),[1]; low=0.2 mg/kg,65.2%
same,Average Decrease in Serum Testosterone Level (%),[1]; medium=2 mg/kg,83.5%
same,Effect on body weight compared to the control group,[2],caused a loss in body weight
same,Average Loss of Body Weight,[2]; high=20 mg/kg,69 g
same,Average Loss of Body Weight,[2]; low=0.2 mg/kg,24 g
same,Average Loss of Body Weight,[2]; medium=2 mg/kg,41 g
same,"LH, FSH, and testosterone",[5]; after 2 months of treatment (Guay et al.),increase
same,free and total testosterone,[5]; men after treatment (Tenover et al.),increases
same,"FSH, LH",[5]; young and old men after treatment (Tenover et al.),increases
"CCN(CC)CCOc1ccc(/C(=C(\Cl)c2ccccc2)c2ccccc2)cc1 [Trans-clomiphene, trans-clomiphene]",Effect on serum testosterone levels compared to the control group,[1],significantly and statistically lowered serum testosterone levels
same,Average Decrease in Serum Testosterone Level (%),[1]; high=20 mg/kg,73%
same,Average Decrease in Serum Testosterone Level (%),[1]; low=0.2 mg/kg,71.7%
same,Average Decrease in Serum Testosterone Level (%),[1]; medium=2 mg/kg,68.3%
same,Effect on body weight compared to the control group,[2],caused a loss in body weight
same,Average Loss of Body Weight,[2]; high=20 mg/kg,35 g
same,Average Loss of Body Weight,[2]; low=0.2 mg/kg,34 g
same,Average Loss of Body Weight,[2]; medium=2 mg/kg,40 g
same,Mean Body weight,[6]; [8],225.1 grams
same,Mean Body weight,[6]; [9],269.0 grams
same,Mean Body weight,[6]; [10],280.3 grams
same,Mean Body weight,[6]; [11],291.8 grams
same,Mean Body weight,[6]; [12],300.8 grams
same,Mean Body weight,[6]; [13],309.0 grams
same,Mean Body weight,[6]; [14],318.7 grams
same,Mean Body weight,[6]; [15],318.4 grams
same,Mean Body weight,[6]; [16],220.4 grams
same,Mean Body weight,[6]; [17],257.3 grams
same,Mean Body weight,[6]; [18],271.8 grams
same,Mean Body weight,[6]; [19],281.4 grams
same,Mean Body weight,[6]; [20],286.9 grams
same,Mean Body weight,[6]; [21],294.9 grams
same,Mean Body weight,[6]; [22],305.5 grams
same,Mean Body weight,[6]; [23],304.4 grams
same,Mean Body weight,[6]; [24],214.4 grams
same,Mean Body weight,[6]; [25],245.1 grams
same,Mean Body weight,[6]; [26],260.3 grams
same,Mean Body weight,[6]; [27],272.3 grams
same,Mean Body weight,[6]; [28],278.9 grams
same,Mean Body weight,[6]; [29],287.7 grams
same,Mean Body weight,[6]; [30],296.9 grams
same,Mean Body weight,[6]; [31],298.3 grams
same,Mean Body weight,[6]; [32],355.5 grams
same,Mean Body weight,[6]; [33],467.0 grams
same,Mean Body weight,[6]; [34],519.0 grams
same,Mean Body weight,[6]; [35],552.1 grams
same,Mean Body weight,[6]; [36],572.5 grams
same,Mean Body weight,[6]; [37],597.8 grams
same,Mean Body weight,[6]; [38],619.6 grams
same,Mean Body weight,[6]; [39],620.2 grams
same,Mean Body weight,[6]; [40],347.4 grams
same,Mean Body weight,[6]; [41],447.8 grams
same,Mean Body weight,[6]; [42],498.0 grams
same,Mean Body weight,[6]; [43],527.8 grams
same,Mean Body weight,[6]; [44],543.3 grams
same,Mean Body weight,[6]; [45],566.3 grams
same,Mean Body weight,[6]; [46],590.0 grams
same,Mean Body weight,[6]; [47],594.2 grams
same,Mean Body weight,[6]; [48],335.2 grams
same,Mean Body weight,[6]; [49],414.1 grams
same,Mean Body weight,[6]; [50],451.7 grams
same,Mean Body weight,[6]; [51],480.5 grams
same,Mean Body weight,[6]; [52],496.9 grams
same,Mean Body weight,[6]; [53],518.8 grams
same,Mean Body weight,[6]; [54],536.8 grams
same,Mean Body weight,[6]; [55],542.9 grams
same,Mean Food consumption,[7]; [8],17.1 grams/animal/day
same,Mean Food consumption,[7]; [9],17.4 grams/animal/day
same,Mean Food consumption,[7]; [10],17.5 grams/animal/day
same,Mean Food consumption,[7]; [11],20.0 grams/animal/day
same,Mean Food consumption,[7]; [12],17.5 grams/animal/day
same,Mean Food consumption,[7]; [13],17.8 grams/animal/day
same,Mean Food consumption,[7]; [14],16.9 grams/animal/day
same,Mean Food consumption,[7]; [15],16.4 grams/animal/day
same,Mean Food consumption,[7]; [16],17.3 grams/animal/day
same,Mean Food consumption,[7]; [17],16.7 grams/animal/day
same,Mean Food consumption,[7]; [18],17.8 grams/animal/day
same,Mean Food consumption,[7]; [19],18.2 grams/animal/day
same,Mean Food consumption,[7]; [20],16.1 grams/animal/day
same,Mean Food consumption,[7]; [21],17.0 grams/animal/day
same,Mean Food consumption,[7]; [22],16.3 grams/animal/day
same,Mean Food consumption,[7]; [23],15.4 grams/animal/day
same,Mean Food consumption,[7]; [24],16.0 grams/animal/day
same,Mean Food consumption,[7]; [25],15.8 grams/animal/day
same,Mean Food consumption,[7]; [26],17.4 grams/animal/day
same,Mean Food consumption,[7]; [27],19.0 grams/animal/day
same,Mean Food consumption,[7]; [28],16.4 grams/animal/day
same,Mean Food consumption,[7]; [29],17.5 grams/animal/day
same,Mean Food consumption,[7]; [30],16.3 grams/animal/day
same,Mean Food consumption,[7]; [31],15.3 grams/animal/day
same,hypophagic effects,"[7]; male and female rats, 0.0125-0.05 mg/kg/day, twenty-eight weeks",observed even at extremely low concentrations
same,Mean Food consumption,[7]; [32],23.8 grams/animal/day
same,Mean Food consumption,[7]; [33],25.1 grams/animal/day
same,Mean Food consumption,[7]; [34],26.6 grams/animal/day
same,Mean Food consumption,[7]; [35],26.5 grams/animal/day
same,Mean Food consumption,[7]; [36],24.3 grams/animal/day
same,Mean Food consumption,[7]; [37],25.1 grams/animal/day
same,Mean Food consumption,[7]; [38],23.1 grams/animal/day
same,Mean Food consumption,[7]; [39],23.6 grams/animal/day
same,Mean Food consumption,[7]; [40],24.3 grams/animal/day
same,Mean Food consumption,[7]; [41],23.8 grams/animal/day
same,Mean Food consumption,[7]; [42],26.9 grams/animal/day
same,Mean Food consumption,[7]; [43],25.4 grams/animal/day
same,Mean Food consumption,[7]; [44],23.6 grams/animal/day
same,Mean Food consumption,[7]; [45],24.0 grams/animal/day
same,Mean Food consumption,[7]; [46],23.4 grams/animal/day
same,Mean Food consumption,[7]; [47],22.6 grams/animal/day
same,Mean Food consumption,[7]; [48],22.0 grams/animal/day
same,Mean Food consumption,[7]; [49],22.5 grams/animal/day
same,Mean Food consumption,[7]; [50],23.5 grams/animal/day
same,Mean Food consumption,[7]; [51],25.9 grams/animal/day
same,Mean Food consumption,[7]; [52],22.6 grams/animal/day
same,Mean Food consumption,[7]; [53],23.1 grams/animal/day
same,Mean Food consumption,[7]; [54],22.4 grams/animal/day
same,Mean Food consumption,[7]; [55],22.0 grams/animal/day
same,in vivo clearance,[3],rapidly cleared
same,estrogenic / antiestrogenic activity,[4],antiestrogenic

# From patent publication US20080287549A1, “METHODS AND MATERIALS FOR CONTROLLING RODENT POPULATIONS” (priority 2007, published 2008)
